This passage reports IC50 results from patent US9540392B2, “Thienopyrimidines” (BAYER PHARMA AKTIENGESELLSCHAFT, priority 2012, dated 2017).

The target of one assay is T1, human full-length MKNK1 (Homo sapiens, UniProt Q9BUB5, T385D).
T1 construct: GST (N); purchased Carna Biosciences 02-145; host or cells: insect cells (baculovirus expression system)
T1 sequence (Q9BUB5 1-424 isoform Q9BUB5-2 T344D): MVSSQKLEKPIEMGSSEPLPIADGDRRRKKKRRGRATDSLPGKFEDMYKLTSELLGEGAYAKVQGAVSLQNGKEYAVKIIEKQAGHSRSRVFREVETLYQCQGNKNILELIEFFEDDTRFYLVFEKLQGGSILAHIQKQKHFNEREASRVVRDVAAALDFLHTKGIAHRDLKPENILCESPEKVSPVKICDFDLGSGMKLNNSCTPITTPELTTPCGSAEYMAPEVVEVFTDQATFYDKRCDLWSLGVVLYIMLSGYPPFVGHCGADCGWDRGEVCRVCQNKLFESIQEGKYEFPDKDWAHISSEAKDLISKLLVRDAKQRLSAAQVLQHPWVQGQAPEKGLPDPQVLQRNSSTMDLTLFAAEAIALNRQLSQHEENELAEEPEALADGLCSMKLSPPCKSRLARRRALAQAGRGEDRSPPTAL
Nature of the assay: MKNK1 kinase high ATP assay (TR-FRET).
Conditions: not given
In kind it is biochemical. The method in brief:
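Compound was preincubated 15 min at 22° C. with MKNK1 in 50 mM HEPES pH 7.5, 5 mM MgCl2, 1.0 mM DTT, then the reaction ran 30 min at 22° C. with 2 mM ATP and 0.06 μM biotinylated peptide (final).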
(In general: Time-resolved FRET reads energy transfer from a long-lived donor to a nearby acceptor.)
For the compound `CCOc1cc2[nH]ncc2cc1Nc1ncnc2sc3c(c12)CCC(C(=O)N1CCC(=O)CC1)C3` (racemic) [Example 211, (RS)-1-({4-[(6-Ethoxy-1H-indazol-5-yl)amino]-5,6,7,8-tetrahydro[1]benzothieno[2,3-d]pyrimidin-7-yl}carbonyl)piperidin-4-one], the IC50 is 0.5 nM.

Still in this assay, the particulars now being: 2 mM ATP, after preincubation with MKNK1; read-out: MKNK1 IC50 (MKNK1 high ATP).
`CCOc1cc2[nH]ncc2cc1Nc1ncnc2sc3c(c12)CCC(C(=O)N(CCOC)CCOC)C3` (racemic) [Example 252, (RS)-4-[(6-Ethoxy-1H-indazol-5-yl)amino]-N,N-bis(2-methoxyethyl)-5,6,7,8-tetrahydro[1]benzothieno[2,3-d]pyrimidine-7-carboxamide]: the IC50 was found to be 2.2 nM. Same read-out and setting: for `CC(C)(C)CNC(=O)C1CCc2c(sc3ncnc(Nc4ccc5[nH]ncc5c4)c23)C1` (racemic) [Example 113, (RS)-N-(2,2-dimethylpropyl)-4-(1H-indazol-5-ylamino)-5,6,7,8-tetrahydro[1]benzothieno[2,3-d]pyrimidine-7-carboxamide] the value was 20.4 nM. Turning to `CN1CCN(C(=O)C2CCc3c(sc4ncnc(Nc5ccc6[nH]ncc6c5)c34)C2)CC1` (stereo not shown) [Example 8, [4-(1H-Indazol-5-ylamino)-5,6,7,8-tetrahydro[1]benzothieno[2,3-d]pyrimidin-7-yl](4-methylpiperazin-1-yl)methanone], the IC50 was 11 nM. As to `O=C(C1CCc2c(sc3ncnc(Nc4ccc5[nH]ncc5c4)c23)C1)N1CCN(c2ccccn2)CC1` (racemic) [Example 87, (RS)-[4-(1H-indazol-5-ylamino)-5,6,7,8-tetrahydro[1]benzothieno[2,3-d]pyrimidin-7-yl][4-(pyridin-2-yl)piperazin-1-yl]methanone], the IC50 came to 20.6 nM. Still for that read-out and setting: in the case of `CCOc1cc2[nH]ncc2cc1Nc1ncnc2sc3c(c12)CCC(C(=O)N1CCC2(CC2)C1)C3` (racemic) [Example 274, (RS)-5-Azaspiro[2.4]hept-5-yl{4-[(6-ethoxy-1H-indazol-5-yl)amino]-5,6,7,8-tetrahydro[1]benzothieno[2,3-d]pyrimidin-7-yl}methanone] it was 1 nM; in that of `COc1cc2[nH]ncc2cc1Nc1ncnc2sc3c(c12)CCC(C(=O)N(C)CC1CC1)C3` (racemic) [Example 182, (RS)—N-(Cyclopropylmethyl)-4-[(6-methoxy-1H-indazol-5-yl)amino]-N-methyl-5,6,7,8-tetrahydro[1]benzothieno[2,3-d]pyrimidine-7-carboxamide], 0.5 nM. Still for that read-out and setting: for `CCOc1cc2[nH]ncc2cc1Nc1ncnc2sc3c(c12)CCC(C(=O)N1CCCCC1)C3` (racemic) [Example 209, (RS)-{4-[(6-Ethoxy-1H-indazol-5-yl)amino]-5,6,7,8-tetrahydro[1]benzothieno[2,3-d]pyrimidin-7-yl}(piperidin-1-yl)methanone] the value was 0.7 nM. Consider `COc1cc2[nH]ncc2cc1Nc1ncnc2sc3c(c12)CCC(C(=O)N1CCOCC1)C3` (racemic) [Example 175, (RS)-{4-[(6-Methoxy-1H-indazol-5-yl)amino]-5,6,7,8-tetrahydro[1]benzothieno[2,3-d]pyrimidin-7-yl}(morpholin-4-yl)methanone], for which the IC50 was 0.5 nM. The same measure, in the same setting: in the case of `CCOc1cc2[nH]ncc2cc1Nc1ncnc2sc3c(c12)CCC(C(=O)N(C)CCO)C3` (racemic) [Example 225, (RS)-4-[(6-Ethoxy-1H-indazol-5-yl)amino]-N-(2-hydroxyethyl)-N-methyl-5,6,7,8-tetrahydro[1]benzothieno[2,3-d]pyrimidine-7-carboxamide] it was 0.3 nM; in that of `O=C(C1CCc2c(sc3ncnc(Nc4ccc5[nH]ncc5c4)c23)C1)N1CCN(Cc2ccccc2)CC1` (racemic) [Example 86, (RS)-(4-benzylpiperazin-1-yl)[4-(1H-indazol-5-ylamino)-5,6,7,8-tetrahydro[1]benzothieno[2,3-d]pyrimidin-7-yl]methanone], 14.9 nM; in that of `CN(Cc1cccn1C)C(=O)C1CCc2c(sc3ncnc(Nc4ccc5[nH]ncc5c4)c23)C1` (racemic) [Example 163, (RS)-4-(1H-indazol-5-ylamino)-N-methyl-N-[(1-methyl-1H-pyrrol-2-yl)methyl]-5,6,7,8-tetrahydro[1]benzothieno[2,3-d]pyrimidine-7-carboxamide], 12.4 nM.

Turning to `O=C(Nc1cccnn1)C1CCc2c(sc3ncnc(Nc4ccc5[nH]ncc5c4)c23)C1` (racemic) [Example 149, (RS)-4-(1H-indazol-5-ylamino)-N-(pyridazin-3-yl)-5,6,7,8-tetrahydro[1]benzothieno[2,3-d]pyrimidine-7-carboxamide], the IC50 was determined as 27.4 nM. Same read-out and setting: for `Cn1cc(NC(=O)C2CCc3c(sc4ncnc(Nc5ccc6[nH]ncc6c5)c34)C2)cn1` (racemic) [Example 146, (RS)-4-(1H-indazol-5-ylamino)-N-(1-methyl-1H-pyrazol-4-yl)-5,6,7,8-tetrahydro[1]benzothieno[2,3-d]pyrimidine-7-carboxamide] the value was 26.4 nM. On the same count and under the same terms, in the case of `CN(C)CCNC(=O)C1CCc2c(sc3ncnc(Nc4ccc5[nH]ncc5c4)c23)C1` (stereo not shown) [Example 38, N-[2-(Dimethylamino)ethyl]-4-(1H-indazol-5-ylamino)-5,6,7,8-tetrahydro[1] benzothieno [2,3-d]pyrimidine-7-carboxamide] it was 6 nM. The same measure, in the same setting: in the case of `COc1cc2[nH]ncc2cc1Nc1ncnc2sc3c(c12)CCC(C(=O)N1CCC1)C3` (racemic) [Example 177, (RS)-Azetidin-1-yl{4-[(6-methoxy-1H-indazol-5-yl)amino]-5,6,7,8-tetrahydro[1]benzothieno[2,3-d]pyrimidin-7-yl}methanone] it was 0.4 nM; in that of `CCOc1cc2[nH]ncc2cc1Nc1ncnc2sc3c(c12)CCC(C(=O)N(C)CC)C3` (racemic) [Example 229, (RS)-4-[(6-Ethoxy-1H-indazol-5-yl)amino]-N-ethyl-N-methyl-5,6,7,8-tetrahydro[1]benzothieno[2,3-d]pyrimidine-7-carboxamide], 0.7 nM.

Turning to `CCOc1cc2[nH]ncc2cc1Nc1ncnc2sc3c(c12)CCC(C(=O)N(CC)CCO)C3` (racemic) [Example 231, (RS)-4-[(6-Ethoxy-1H-indazol-5-yl)amino]-N-ethyl-N-(2-hydroxyethyl)-5,6,7,8-tetrahydro[1]benzothieno[2,3-d]pyrimidine-7-carboxamide], the IC50 worked out at 0.3 nM. The same measure, in the same setting: for `CC(C)NC(=O)C1CCc2c(sc3ncnc(Nc4cc5cn[nH]c5cc4F)c23)C1` (racemic) [Example 63, (RS)-4-[(6-Fluoro-1H-indazol-5-yl)amino]-N-(propan-2-yl)-5,6,7,8-tetrahydro[1]benzothieno[2,3-d]pyrimidine-7-carboxamide] the value was 10.2 nM; for `O=C(NCC(F)(F)F)C1CCc2c(sc3ncnc(Nc4ccc5[nH]ncc5c4)c23)C1` (stereo not shown) [Example 33, 4-(1H-Indazol-5-ylamino)-N-(2,2,2-trifluoroethyl)-5,6,7,8-tetrahydro[1] benzothieno [2,3-d]pyrimidine-7-carboxamide], 5 nM. Same read-out and setting: for `CN1CCCN(C(=O)C2CCc3c(sc4ncnc(Nc5ccc6[nH]ncc6c5)c34)C2)CC1` (racemic) [Example 118, (RS)-[4-(1H-indazol-5-ylamino)-5,6,7,8-tetrahydro[1]benzothieno[2,3-d]pyrimidin-7-yl](4-methyl-1,4-diazepan-1-yl)methanone] the value was 13.2 nM. Same read-out and setting: in the case of `CCOc1cc2[nH]ncc2cc1Nc1ncnc2sc3c(c12)CCC(C(=O)N1CCOCC1)C3` (racemic) [Example 212, (RS)-{4-[(6-Ethoxy-1H-indazol-5-yl)amino]-5,6,7,8-tetrahydro[1]benzothieno[2,3-d]pyrimidin-7-yl}(morpholin-4-yl)methanone] it was 0.3 nM; in that of `CC(C)CNC(=O)C1CCc2c(sc3ncnc(Nc4ccc5[nH]ncc5c4)c23)C1` (stereo not shown) [Example 39, 4-(1H-Indazol-5-ylamino)-N-(2-methylpropyl)-5,6,7,8-tetrahydro[1] benzothieno [2,3-d]pyrimidine-7-carboxamide], 6 nM. `COc1ccccc1CNC(=O)C1CCc2c(sc3ncnc(Nc4ccc5[nH]ncc5c4)c23)C1` (stereo not shown) [Example 22, 4-(1H-Indazol-5-ylamino)-N-(2-methoxybenzyl)-5,6,7,8-tetrahydro[1] benzothieno[2,3-d] pyrimidine-7-carboxamide]: the IC50 is 3 nM. With `COc1cc2[nH]ncc2cc1Nc1ncnc2sc3c(c12)CCC(C(=O)N(C)C(C)C)C3` (racemic) [Example 173, (RS)—N—Isopropyl-4-[(6-methoxy-1H-indazol-5-yl)amino]-N-methyl-5,6,7,8-tetrahydro[1]benzothieno[2,3-d]pyrimidine-7-carboxamide], the IC50 came out at 0.5 nM.

As to `CCOc1cc2[nH]ncc2cc1Nc1ncnc2sc3c(c12)CCC(C(=O)N1CC[C@H](O)C1)C3` (mixture of isomers) [Example 246, {(7RS)-4-[(6-Ethoxy-1H-indazol-5-yl)amino]-5,6,7,8-tetrahydro[1]benzothieno[2,3-d]pyrimidin-7-yl}[(3S)-3-hydroxypyrrolidin-1-yl]methanone], the IC50 was 0.9 nM. The same measure, in the same setting: in the case of `COc1cccc(CNC(=O)C2CCc3c(sc4ncnc(Nc5ccc6[nH]ncc6c5)c34)C2)c1` (stereo not shown) [Example 19, 4-(1H-indazol-5-ylamino)-N-(3-methoxybenzyl)-5,6,7,8-tetrahydro[1] benzothieno [2,3-d]pyrimidine-7-carboxamide] it was 2 nM.

On to `COc1cc2[nH]ncc2cc1Nc1ncnc2sc3c(c12)CCC(C(=O)N1C[C@H](O)[C@@H](O)C1)C3` (mixture of isomers) [Example 244, [(3R,4R)-3,4-Dihydroxypyrrolidin-1-yl]{(7RS)-4-[(6-methoxy-1H-indazol-5-yl)amino]-5,6,7,8-tetrahydro[1]benzothieno[2,3-d]pyrimidin-7-yl}methanone], for which the IC50 was determined as 0.4 nM.

What is called IC50 is the point on the concentration scale where inhibition reaches its midpoint.
